Key:
[1] = target: T1, binding of human MCP-1 to THP-1 cells (Homo sapiens, UniProt P41597); assay: Inhibition of binding of [125I]-labeled baculovirus expressed human MCP-1 to THP-1 cells (Method 1); conditions: for inhibition at 100 µM: Method 1, at 100 μM; for inhibition at 10 µM: Method 1, at 10 μM
T1 construct: endogenous in cells; host or cells: THP-1 (human monocytic leukemia cell line), whole cells
T1 sequence (P41597 1-360 isoform P41597-2): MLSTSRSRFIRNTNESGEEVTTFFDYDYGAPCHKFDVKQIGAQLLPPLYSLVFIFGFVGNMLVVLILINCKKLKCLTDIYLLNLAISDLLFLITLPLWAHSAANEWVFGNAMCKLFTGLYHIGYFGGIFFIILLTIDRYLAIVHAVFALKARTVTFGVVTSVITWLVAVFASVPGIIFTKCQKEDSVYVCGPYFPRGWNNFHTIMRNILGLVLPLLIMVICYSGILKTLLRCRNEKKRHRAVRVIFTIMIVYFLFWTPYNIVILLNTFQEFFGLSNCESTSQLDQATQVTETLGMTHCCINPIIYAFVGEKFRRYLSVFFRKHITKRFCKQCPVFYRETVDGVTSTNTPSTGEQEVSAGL
Excerpt: Measurement of Inhibition of MCP-1 Binding to THP-1 Cells 1. Construction of recombinant baculovirus carrying the human MCP-1 gene Based on the previously published human MCP-1 gene sequence (for example T. Yoshirnura et al., FEBS Lett., 1989, 244, 487-493), two synthetic DNA primers ([NT] and [NT]) flanked by restriction enzyme sites were used to amplify a DNA fragment from cDNA derived from human endothelial cells (purchased from Kurabow Co.); the amplified fragment was cut with the restriction enzymes (PstI and XbaI), ligated into a transfer vector pVL1393 (Invitrogen Co.), and the resulting vector was co-transfected along with infectious baculovirus into Sf-9 insect cells and the supernatant was plaque assayed to yield human MCP-1 gene baculovirus recombinant. […] Using the method of K. Ishii et al. […] The culture supernatant was affinity purified using a heparin Sepharose column (Pharmacia Co.) and then further purified using reverse phase HPLC (Vydac C18 column) to prepare purified human MCP-1. […] 3-1. […] The test. compound was diluted in the assay buffer and used as the test compound solution. [^125I]-labeled human MCP-1 described above was diluted in assay buffer to 1 mCi/mL and used as the labeled ligand solution. In a 96 well filter plate (Millipore Co.), 25 μL of test compound solution, 25 μL of labeled ligand solution and 50 μL of cell suspension were aliquoted into each well in this order, stirred (total reaction volume 100 μL), and incubated for one hour at 18° C. After the reaction, the reaction solution was filtered, and the filter was washed twice with 200 μL of cold PBS (200 μL of cold PBS was added and then filtered). The filter was air-dried and 25 μL of liquid sciatillator was added into each well. The radioactivity retained by the cells on the filter were measured using TopCount (Packard Instrument Co.). To calculate the ability of test compound to inhibit binding of human MCP-1 to THP-1 cells, non-specific binding determined by adding 100 ng of unlabeled human MCP-1 in place of the test compound was subtracted, while the counts with no test compound added was taken as 100%. Inhibition (%)=(1-(A-B)/(C-B))×100 (A, counts with test compound added; B, counts with 100 ng of unlabeled human MCP-1 added; C, counts with [^125I]-labeled human MCP-1 added).

[2] = target: T1, binding of human MCP-1 to THP-1 cells; assay: Inhibition of binding of [125I]-labeled baculovirus expressed human MCP-1 to THP-1 cells (Method 2); conditions: Method 2, at 1 μM
Excerpt: 1. Construction of recombinant baculovirus carrying the human MCP-1 gene
Based on the previously published human MCP-1 gene sequence (for example T. Yoshirnura et al., FEBS Lett., 1989, 244, 487-493), two synthetic DNA primers (5′-[…]-3′ and 5′-[…]-3′) flanked by restriction enzyme sites were used to amplify a DNA fragment from cDNA derived from human endothelial cells (purchased from Kurabow Co.); the amplified fragment was cut with the restriction enzymes (PstI and XbaI), ligated into a transfer vector pVL1393 (Invitrogen Co.), and the resulting vector was co-transfected along with infectious baculovirus into Sf-9 insect cells and the supernatant was plaque assayed to yield human MCP-1 gene baculovirus recombinant.
2. Synthesis of [^125I]-labeled human MCP-1 expressed in baculovirus
Using the method of K. Ishii et al. (Biochem Biophys Research Communications, 1995, 206, 955-961), 5×10^6 Sf-6 insect cells was infected with 5×10^7 PFU (plaque forming units) of the above human MCP-1 recombinant baculovirus and cultured for 7 days in Ex-Cell 401 medium. The culture supernatant was affinity purified using a heparin Sepharose column (Pharmacia Co.) and then further purified using reverse phase HPLC (Vydac C18 column) to prepare purified human MCP-1. The purified human MCP-1 was protein labeled by Amersham Co. using the Bolton Hunter method to yield [^125I]-labeled baculovirus expressed human MCP-1 (specific activity 2000 Ci/mmol).
3-2. Measurement of inhibition of binding of [^125I]-labeled baculovirus expressed human MCP-1 to THP-1 cells (Method 2)
Human monocytic leukemia cell line THP-1 was suspended in assay buffer (50 mM HEPES, pH 7.4, 1.0 mM CaCl2, 5.0% mM MgCl2, 0.5% BSA) to give a cell suspension of a concentration of 1×10^7 cells/mL. The test compound was diluted in the assay buffer and used as the test compound solution. [^125I]-labeled human MCP-1 described above was diluted in assay buffer to 1 mCi/mL and used as the labeled ligand solution. In a 96 well filter plate (Millipore Co.), 25 μL of test compound solution, 25 μL of labeled ligand solution and 50 μL of cell suspension were aliquoted into each well in this order, stirred (total reaction volume 100 μL), and incubated for one hour at 18° C.
After the reaction, the reaction solution was filtered, and the filter was washed twice with 200 μL of cold PBS (200 μL of cold PBS was added and then filtered). The filter was air-dried and 25 μL of liquid scintillator was added into each well. The radioactivity retained by the cells on the filter were measured using TopCount (Packard Instrument Co.).
To calculate the ability of test compound to inhibit binding of human MCP-1 to THP-1 cells, non-specific binding determined by adding 100 ng of unlabeled human MCP-1 in place of the test compound was subtracted, while the counts with no test compound added was taken as 100%.
Inhibition (%)={1−(A−B)/(C−B)}×100
(A, counts with test compound added; B, counts with 100 ng of unlabeled human MCP-1 added; C, counts with [^125I]-labeled human MCP-1 added).

[3] = system: THP-1 cells; assay: Inhibition of cell chemotaxis caused by MCP-1; assay type: cell-based; conditions: Homo sapiens, MCP-1 20 ng/mL, read-out: inhibition of cell migration IC50
Experimental: Measurement of Inhibition of Cell Chemotaxis
In order to determine the inhibition of cell chemotaxis by the compounds of this invention, we measured cell chemotaxis caused by monocyte chemotactic factor MCP-1 using the human monocytic leukemia cell line THP-1 as the chemotactic cell according to the method of Fall et al. (J. Immunol. Methods, 190, 33,239-247). 2×10^6 cells/mL of THP-1 cells (suspended in RPMI-1640 (Flow Laboratories Co.)+10% FCS) was placed in the upper chamber (200 μL) of a 96 well micro-chemotaxis chamber (Neuroprobe; registered tradename), and human recombinant MCP-1 in a same solution (Peprotech Co.) at a final concentration of 20 ng/mL was placed in the lower chamber, with a polycarbonate filter (PVP-free, Neuroprobe; registered tradename) placed between the two chambers. These were incubated at 37° C. for 2 hr in 5% CO2.
The filter was removed, and the cells which had migrated to the underside of the filter was fixed, stained using Diff Quick (Kokusai Shiyaku Co.) and then quantitated using a plate reader (Molecular Device Co.) at a wavelength of 550 nm to determine the index of cell migration as a mean of 3 wells. In addition, test compounds were placed in the upper and lower chambers along with THP-1 and MCP-1, respectively, and the inhibition of cell migration (inhibition IC50 (μM)) was determined.

SMILES | inhibition at 100 µM [1] [%] | inhibition at 10 µM [1] [%] | inhibition at 1 µM [2] [%] | IC50 [3] [nM]
O=C(CNC(=O)Nc1ccc(C(F)(F)F)cc1)NCC1CCN(Cc2ccc(Cl)cc2)CC1 [Compound No. 852, 1-(4-Chlorobenzyl)-4-[{2-(3-(4-trifluoromethylphenyl)ureido)acetylamino}methyl]piperidine] | > 80 | – | – | –
NC(=O)c1ccc(CN2CCC(CNC(=O)CNC(=O)c3cccc(C(F)(F)F)c3)CC2)cc1 [Compound No. 925, 1-(4-Carbamoylbenzyl)-4-[{N-(3-(trifluoromethyl)benzoyl)glycyl}aminomethyl]piperidine] | – | 20 to 50 | – | –
CN(C)c1ccc(CN2CCC(CNC(=O)CNC(=O)c3cccc(C(F)(F)F)c3)CC2)cc1 [Compound No. 937, 1-{4-(Dimethylamino)benzyl}-4-[{N-(3-(trifluoromethyl)benzoyl)glycyl}aminomethyl]piperidine] | – | 50 to 80 | – | –
C=Cc1ccc(CN2CC[C@@H](NC(=O)CNC(=O)c3cc(C(F)(F)F)ccc3N)C2)cc1 [Compound No. 1701, (R)-3-[{N-(2-Amino-5-(trifluoromethyl)benzoyl)glycyl}amino]-1-(4-vinylbenzyl)pyrrolidine] | – | – | > 80 | < 100
COc1ccc(CN2CC[C@@H](NC(=O)CNC(=O)c3cc(OC(F)(F)F)ccc3N)C2)cc1O [Compound No. 1896, (R)-3-[{N-(2-Amino-5-trifluoromethoxybenzoyl)glycyl}amino]-1-(3-hydroxy-4-methoxybenzyl)pyrrolidine] | – | – | > 80 | < 100
Nc1cc(Cl)ccc1CN1CC[C@@H](NC(=O)CNC(=O)c2cc(OC(F)(F)F)ccc2N)C1 [Compound No. 1921, (R)-3-[{N-(2-Amino-5-trifluoromethoxybenzoyl)glycyl}amino]-1-(2-amino-4-chlorobenzyl)pyrrolidine] | – | – | > 80 | < 100
Cc1ccc(CN2CCC(CNC(=O)CNC(=O)c3cc(F)c(F)cc3N)CC2)cc1N [Compound No. 2114, 4-[{N-(2-Amino-4,5-difluorobenzoyl)glycyl}aminomethyl]-1-(3-amino-4-methylbenzyl)piperidine] | – | – | > 80 | < 100
Nc1cc(CN2CC[C@@H](NC(=O)CNC(=O)c3cc(C(F)(F)F)ccc3N)C2)ccc1Cl [Compound No. 2132, (R)-1-(3-Amino-4-chlorobenzyl)-3-[{N-(2-amino-5-trifluoromethylbenzoyl)glycyl}amino]pyrrolidine] | – | – | > 80 | < 100
Nc1cc(CN2CCC(CNC(=O)CNC(=O)c3cc(F)c(F)cc3N)CC2)ccc1O [Compound No. 2141, 4-[{N-(2-amino-4,5-difluorobenzoyl)glycyl}aminomethyl]-1-(3-amino-4-hydroxybenzyl)piperidine] | – | – | – | < 100
CNc1cc(CN2CC[C@@H](NC(=O)CNC(=O)c3cc(C(F)(F)F)ccc3N)C2)ccc1O [Compound No. 2158, (R)-3-[{N-(2-Amino-5-trifluoromethylbenzoyl)glycyl}amino]-1-(3-methylamino-4-hydroxybenzyl)pyrrolidine] | – | – | – | < 100
O=C(CNC(=O)c1cc(C(F)(F)F)cc(C(F)(F)F)c1)N[C@H]1CCN(Cc2ccc(Cl)cc2)C1 [compound 5, (S)-3-[N-{3,5-Bis (trifluoromethyl)benzoyl}glycyl]amino-1-(4-chlorobenzyl)pyrrolidine] | > 80 | – | – | –
Cc1noc(C)c1CN1CC[C@@H](NC(=O)CNC(=O)c2cc(F)cc(C(F)(F)F)c2)C1 [compound 1191, (R)-3-[N-(3-Fluoro-5(trifluoromethyl)benzoyl)glycyl]amino-1-(3,5-dimethylisoxazol-4-ylmethyl)pyrrolidine] | – | – | > 80 | < 100

Source: patent US6410566B1, “Cyclic amine derivatives and their use as drugs” (Teijin Limited, priority 2000, dated 2002)
